{"source": "patent US20060280725A1", "about": "“Compositions and methods of treating and diagnosing hepatoma” (priority 2003, published 2006)", "key": {"hepatoma cells [1]": {"test_system": "hepatoma cells", "test": "Glutamine transport after siRNA1 treatment", "format": "cell-based, human", "method": "(§1) FIG. 16. […] Panel C are photos from the experiment of panel B.\n(§2) The physiological effects of downregulating ASCT2 expression by administration of siRNA1 in hepatoma cells were studied. Glutamine transport, which was measured as nanomoles of glutamine per milligram of total protein per 30s, was examined at 24 hours and at 48 hours in Lipofectamine treated cells and Lipofectamine+50 nM siRNA1. […] Cell counts were made at 48 hours of hepatoma cultures, each of which were started with the same number of viable cells, receiving either Lipofectamine™ 200 alone or Lipofectamine™ 200 plus siRNA1. After 48 hours, a 40% reduction in the number of cells that had received isRNA1 (which comprises SEQ ID NO:3) relative to control cells was observed."}, "ASCT2/ATB^0 RNA": {"test_system": "ASCT2/ATB^0 RNA", "test": "Northern blot analysis of ASCT2/ATB0 silencing in six human liver cancer cell lines", "format": "cell-based", "conditions": "50 nM", "source_text": "FIG. 17. […] Panel B are the phospho-imager quantification results of the blot shown in panel A (normalized to beta actin mRNA levels).\nRNA was extracted from six (6) human liver cancer cell lines and subject to northern blot analysis using ASCT2/ATB^0 DNA as a probe. Actin RNA was probed as a baseline control. […] Those autoradiograms were subjected to phospho-imager quantitative analysis and normalized to actin RNA expression (FIG. 17, panel B). The designation “L” refers to Liopfectamine™ 200 alone, and “S” refers to Liopfectamine™ 200 plus siRNA at 50 nM."}, "hepatoma cells [2]": {"test_system": "hepatoma cells", "test": "Cell counts after siRNA1 treatment", "format": "cell-based, human", "method": "as §1, §2"}, "ASCT2 mRNA": {"test_system": "ASCT2 mRNA", "test": "Northern blot analysis of ASCT2 mRNA after siRNA transfection", "format": "cell-based, human", "method": "FIG. 15. […] B is the phospho-imager quantification of the bands in A. C is the concentration curve for siRNA1, showing that 50 nM is sufficient for maximum silencing of ASCT2 expression.\nsiRNAs that are specific to ASCT2 were designed using several known algorithms and then checked for specificity. Four (4) siRNAs, i.e., siRNA1 (which comprises SEQ ID NO:3), siRNA2 (which comprises SEQ ID NO:4), siRNA3 (which comprises SEQ ID NO:5), and siRNA4 (which comprises SEQ ID NO:6), were synthesized. SK-Hep cells were transfected with 50 nM concentration of any one of siRNA1, 2, 3 or 4 using Lipofectamine™ 2000 (Invitrogen™ life technologies) based on the protocols set forth in Gitlin, L., Karelsky, S., and Andino, R. (2002), Nature 418: 430-434; Yu, J. Y., DeRuiter, S. L., and Turner, D. L. (2002), Proc. Nat. Acad. Sci. USA 99:6047-6052; and “Transfecting siRNA into Mammalian Cells Using Lipofectamine™ 2000,” Form No. 18057N, Doc. Rev. 102802 by Invitrogen Corporation (2002), which are herein incorporated by reference. At 24 hours and at 48 hours, RNAs were extracted from the transfected cells and the expression of ASCT2 was examined by Northern blot analysis (see FIG. 15A).\nHepatoma cells were then treated with Lipofectamine™ 200 without siRNA1, with 12.5 nM, 25 nM, 50 nM or 100 nM siRNA1."}}}
{"substance": "siRNA1: siRNA specific to ASCT2, which comprises SEQ ID NO:3 (AGGAGGTGCTCGATTCGTT; listed as DNA, chemistry not given here; listed as Homo sapiens)", "values": [{"measurement": "reduction in glutamine transport relative to controls", "setting": "hepatoma cells [1]; 50 nM, 24 and 48 hours, vs Lipofectamine alone, p<0.01", "value": "greater than 50%"}, {"measurement": "ASCT2 function (glutamine uptake)", "setting": "hepatoma cells [1]; FIG. 16 panel A", "value": "substantially decreases"}, {"measurement": "relative ASCT2/ATB^0 expression (normalized to actin RNA)", "setting": "ASCT2/ATB^0 RNA", "value": "significant reduction"}, {"measurement": "cellular loss compared to transfection reagent alone", "setting": "hepatoma cells [2]; FIG. 16 panel B", "value": "leads to cellular loss (death)"}, {"measurement": "reduction in the number of cells relative to control cells", "setting": "hepatoma cells [2]; after 48 hours, vs Lipofectamine alone", "value": 40, "unit": "%"}, {"measurement": "relative effectiveness at reducing ASCT2 expression (mRNA relative to actin)", "setting": "ASCT2 mRNA; SK-Hep, 50 nM siRNA, 24 and 48 hours", "value": "most effective of the four siRNAs"}, {"measurement": "concentration sufficient for maximum silencing of ASCT2 expression", "setting": "ASCT2 mRNA; tested 12.5, 25, 50, 100 nM", "value": 50, "unit": "nM"}]}
